From the supplement of paper PMC10883282
± gives the standard deviation of the averaged measurements.

Columns and labels:
Assay in all cases: relative viability vs DMSO control (72 h) (fraction); higher = more viable cells
HT1080 = tested on: HT1080
Summary of the method: (§1)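 Relative viability is percent growth read by ATPLite and averaged over up to triplicate wells. Sarcoma cells were seeded in 384-well plates to reach 80–90% confluence and given 2.5 µl of serially diluted compound after 24 h, from source plates of 10 mM to 0.0002 mM. Incubation lasted 72 h at 37 °C, 5% CO2, with 0.1% DMSO vehicle and a 5 µM positive control, and the data were rescaled so 1 equals full and 0 equals none.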

KHOS-NP = tested on: KHOS-NP
Summary of the method: as §1

SK-ES-1 = tested on: SK-ES-1
Summary of the method: as §1

RD-ES = tested on: RD-ES
Summary of the method: as §1

SW982 = tested on: SW982
Summary of the method: as §1

KHOS-240S = tested on: KHOS-240S
Summary of the method: as §1

G401 = tested on: G401
Summary of the method: as §1

A204 = tested on: A204
Summary of the method: as §1

SW1353 = tested on: SW1353
Summary of the method: as §1

SW872 = tested on: SW872
Summary of the method: as §1

SYO-1 = tested on: SYO-1
Summary of the method: as §1

SW684 = tested on: SW684
Summary of the method: as §1

O=C(/C=C\n1cnc(-c2cc(C(F)(F)F)cc(C(F)(F)F)c2)n1)NNc1cnccn1 [Selinexor]
Conditions	relative viability
A204, 0.00017 µM	1.1 ± 0.026
A204, 0.00051 µM	1.11 ± 0.023
A204, 0.00152 µM	1.08 ± 0.021
A204, 0.00457 µM	1.08 ± 0.015
A204, 0.01372 µM	0.996 ± 0.014
A204, 0.04115 µM	0.884 ± 0.059
A204, 0.1235 µM	0.677 ± 0.03
A204, 0.3704 µM	0.441 ± 0.027
A204, 1.111 µM	0.299 ± 0.015
A204, 3.333 µM	0.218 ± 0.043
A204, 10 µM	0.171 ± 0.012
G401, 0.00017 µM	1.07 ± 0.055
G401, 0.00051 µM	1.05 ± 0.041
G401, 0.00152 µM	1.04 ± 0.054
G401, 0.00457 µM	0.985 ± 0.029
G401, 0.01372 µM	0.943 ± 0.015
G401, 0.04115 µM	0.8726 ± 0.00035
G401, 0.1235 µM	0.743 ± 0.041
G401, 0.3704 µM	0.463 ± 0.031
G401, 1.111 µM	0.366 ± 0.02
G401, 3.333 µM	0.272 ± 0.03
G401, 10 µM	0.235 ± 0.0072
HT1080, 0.00017 µM	1.11 ± 0.071
HT1080, 0.00051 µM	1.14 ± 0.039
HT1080, 0.00152 µM	1.13 ± 0.04
HT1080, 0.00457 µM	1.11 ± 0.047
HT1080, 0.01372 µM	1.082 ± 0.0066
HT1080, 0.04115 µM	1.088 ± 0.0043
HT1080, 0.1235 µM	0.814 ± 0.03
HT1080, 0.3704 µM	0.375 ± 0.014
HT1080, 1.111 µM	0.3301 ± 0.0015
HT1080, 3.333 µM	0.2689 ± 0.00085
HT1080, 10 µM	0.2291 ± 0.0019
KHOS-240S, 0.00017 µM	1.08 ± 0.024
KHOS-240S, 0.00051 µM	1.11 ± 0.029
KHOS-240S, 0.00152 µM	1.08 ± 0.058
KHOS-240S, 0.00457 µM	1.08 ± 0.012
KHOS-240S, 0.01372 µM	1.07 ± 0.039
KHOS-240S, 0.04115 µM	0.845 ± 0.047
KHOS-240S, 0.1235 µM	0.511 ± 0.01
KHOS-240S, 0.3704 µM	0.249 ± 0.029
KHOS-240S, 1.111 µM	0.188 ± 0.012
KHOS-240S, 3.333 µM	0.0642 ± 0.0041
KHOS-240S, 10 µM	0.0639 ± 0.011
KHOS-NP, 0.00017 µM	1.09 ± 0.048
KHOS-NP, 0.00051 µM	1.12 ± 0.024
KHOS-NP, 0.00152 µM	1.131 ± 0.0054
KHOS-NP, 0.00457 µM	1.13 ± 0.013
KHOS-NP, 0.01372 µM	1.12 ± 0.02
KHOS-NP, 0.04115 µM	1.05 ± 0.11
KHOS-NP, 0.1235 µM	0.727 ± 0.046
KHOS-NP, 0.3704 µM	0.238 ± 0.011
KHOS-NP, 1.111 µM	0.184 ± 0.0023
KHOS-NP, 3.333 µM	0.0993 ± 0.0081
KHOS-NP, 10 µM	0.0794 ± 0.0016
RD-ES, 0.00017 µM	0.988 ± 0.038
RD-ES, 0.00051 µM	1.02 ± 0.035
RD-ES, 0.00152 µM	0.993 ± 0.035
RD-ES, 0.00457 µM	0.972 ± 0.025
RD-ES, 0.01372 µM	0.949 ± 0.024
RD-ES, 0.04115 µM	0.825 ± 0.019
RD-ES, 0.1235 µM	0.705 ± 0.022
RD-ES, 0.3704 µM	0.602 ± 0.014
RD-ES, 1.111 µM	0.5 ± 0.022
RD-ES, 3.333 µM	0.3989 ± 0.0033
RD-ES, 10 µM	0.334 ± 0.021
SK-ES-1, 0.00017 µM	1.05 ± 0.069
SK-ES-1, 0.00051 µM	1.06 ± 0.027
SK-ES-1, 0.00152 µM	1.04 ± 0.027
SK-ES-1, 0.00457 µM	1.05 ± 0.056
SK-ES-1, 0.01372 µM	0.953 ± 0.026
SK-ES-1, 0.04115 µM	0.515 ± 0.013
SK-ES-1, 0.1235 µM	0.0598 ± 0.0042
SK-ES-1, 0.3704 µM	0.014 ± 0.0012
SK-ES-1, 1.111 µM	0.0115 ± 0.00044
SK-ES-1, 3.333 µM	0.0084 ± 0.00046
SK-ES-1, 10 µM	0.013 ± 0.0011
SW684, 0.00017 µM	1.14 ± 0.02
SW684, 0.00051 µM	1.24 ± 0.048
SW684, 0.00152 µM	1.23 ± 0.014
SW684, 0.00457 µM	1.25 ± 0.024
SW684, 0.01372 µM	1.18 ± 0.033
SW684, 0.04115 µM	1.17 ± 0.045
SW684, 0.1235 µM	0.953 ± 0.065
SW684, 0.3704 µM	0.885 ± 0.031
SW684, 1.111 µM	0.819 ± 0.018
SW684, 3.333 µM	0.754 ± 0.036
SW684, 10 µM	0.686 ± 0.039
SW872, 0.00017 µM	1.065 ± 0.0092
SW872, 0.00051 µM	1.07 ± 0.037
SW872, 0.00152 µM	1.075 ± 0.0025
SW872, 0.00457 µM	1.07 ± 0.03
SW872, 0.01372 µM	1.06 ± 0.013
SW872, 0.04115 µM	0.989 ± 0.017
SW872, 0.1235 µM	0.823 ± 0.023
SW872, 0.3704 µM	0.752 ± 0.016
SW872, 1.111 µM	0.537 ± 0.027
SW872, 3.333 µM	0.365 ± 0.033
SW872, 10 µM	0.306 ± 0.0063
SW982, 0.00017 µM	1.06 ± 0.043
SW982, 0.00051 µM	1.07 ± 0.051
SW982, 0.00152 µM	1.08 ± 0.0098
SW982, 0.00457 µM	1.07 ± 0.025
SW982, 0.01372 µM	1.08 ± 0.029
SW982, 0.04115 µM	0.918 ± 0.08
SW982, 0.1235 µM	0.53 ± 0.017
SW982, 0.3704 µM	0.292 ± 0.023
SW982, 1.111 µM	0.211 ± 0.019
SW982, 3.333 µM	0.161 ± 0.0021
SW982, 10 µM	0.177 ± 0.0064
SW1353, 0.00017 µM	1.11 ± 0.018
SW1353, 0.00051 µM	1.06 ± 0.029
SW1353, 0.00152 µM	1.12 ± 0.041
SW1353, 0.00457 µM	1.05 ± 0.03
SW1353, 0.01372 µM	1.03 ± 0.047
SW1353, 0.04115 µM	0.999 ± 0.038
SW1353, 0.1235 µM	0.883 ± 0.029
SW1353, 0.3704 µM	0.792 ± 0.023
SW1353, 1.111 µM	0.672 ± 0.016
SW1353, 3.333 µM	0.616 ± 0.033
SW1353, 10 µM	0.511 ± 0.016
SYO-1, 0.00017 µM	1.02 ± 0.03
SYO-1, 0.00051 µM	1.02 ± 0.019
SYO-1, 0.00152 µM	1.02 ± 0.027
SYO-1, 0.00457 µM	0.928 ± 0.035
SYO-1, 0.01372 µM	0.804 ± 0.047
SYO-1, 0.04115 µM	0.63 ± 0.021
SYO-1, 0.1235 µM	0.534 ± 0.051
SYO-1, 0.3704 µM	0.41 ± 0.0078
SYO-1, 1.111 µM	0.25 ± 0.0038
SYO-1, 3.333 µM	0.136 ± 0.0042
SYO-1, 10 µM	0.0755 ± 0.017
